{"source": "paper PMC9188596", "about": "“Structural basis of resistance to herbicides that target acetohydroxyacid synthase” (Nature Communications, 2022)", "key": {"[1]": {"molecular_target": "T1, WT AtAHAS (Arabidopsis thaliana, UniProt P17597)", "assay": "Ki of herbicides, continuous spectrophotometric AHAS assay", "format": "biochemical", "procedure": "(§1) Standard assays were performed using a continuous spectrophotometric method measuring the disappearance of pyruvate. The standard buffer contained 50 mM potassium phosphate, pH 7.2, 1 mM ThDP, 10 mM MgCl2, and 10 µM FAD. The concentration of pyruvate was in the range 100–160 mM, as described in the text, methods, or figure legends.\n(§2) Supplementary Figure 6. Measurement of the Ki values for WT AtAHAS and the mutants.\n(§3) The error bars represent the standard error of the mean of two independent replicates. [I] =\n(§4) inhibitor concentration. Source data are provided with this paper.\n(§5) (1 picture or pasted object on this page, not shown here)"}, "[2]": {"molecular_target": "T2, AtAHAS P197T mutant (Arabidopsis thaliana, UniProt P17597, P197T)", "assay": "biochemical", "procedure": "as §1, §2, §3, §4, §5"}, "[3]": {"molecular_target": "T3, AtAHAS S653T mutant (Arabidopsis thaliana, UniProt P17597, S653T)", "assay": "biochemical", "procedure": "as §1, §2, §3, §4, §5"}, "[4]": {"molecular_target": "T4, AtAHAS P197L mutant (Arabidopsis thaliana, UniProt P17597, P197L)", "assay": "biochemical", "procedure": "as §1, §2, §3, §4, §5"}, "[5]": {"molecular_target": "T5, AtAHAS W574L mutant (Arabidopsis thaliana, UniProt P17597, W574L)", "assay": "biochemical", "procedure": "as §1, §2, §3, §4, §5"}, "[6]": {"molecular_target": "T2, AtAHAS P197T mutant", "format": "biochemical", "conditions": "P197T, NAI = no accumulative inhibition detected", "procedure": "as §1\n(§6) AtAHAS was assayed in the standard assay buffer containing 160 mM pyruvate, at 30 °C. For AtAHAS activation the progress curve corresponding to the lag-phase was fitted to Eq. (8) of Lonhienne et al.[14]. For the time dependent accumulative inhibition of AtAHAS the progress curves were fitted to Equation 9 of Lonhienne et al.[12].\n(§7) Supplementary Figure 8. Measurement of the rate constants of accumulative inhibition for WT AtAHAS and its mutants. The progress curves were fitted to the equation of accumulative inhibition (Equation 7 2). The rate constants of enzyme inactivation ( kiapp) and enzyme recovery (k3) were measured in triplicate. Source data are provided with this paper. […]"}, "[7]": {"molecular_target": "T3, AtAHAS S653T mutant", "format": "biochemical", "procedure": "as §1, §6, §7"}, "[8]": {"molecular_target": "T4, AtAHAS P197L mutant", "format": "biochemical", "conditions": "NAI = no accumulative inhibition detected", "procedure": "as §1, §6, §7"}, "[9]": {"molecular_target": "T5, AtAHAS W574L mutant", "format": "biochemical", "conditions": "NAI = no accumulative inhibition detected", "procedure": "as §1, §6, §7"}, "[10]": {"molecular_target": "T1, WT AtAHAS", "conditions": "± standard error of the mean, cited from earlier work"}, "[11]": {"molecular_target": "T1, WT AtAHAS", "format": "biochemical", "procedure": "as §1, §6\nSupplementary Figure 8. Measurement of the rate constants of accumulative inhibition for WT AtAHAS and its mutants. The progress curves were fitted to the equation of accumulative inhibition (Equation 7 2). The rate constants of enzyme inactivation ( kiapp) and enzyme recovery (k3) were measured in triplicate. Source data are provided with this paper."}, "[12]": {"conditions": "Ki (Supplementary Figure 6), P197T, fit of % activity remaining vs [I], two independent replicates"}, "[13]": {"conditions": "Ki, P197T mutant, ± standard error of the mean"}, "[14]": {"conditions": "Ki (Supplementary Figure 6), S653T, fit of % activity remaining vs [I], two independent replicates"}, "[15]": {"conditions": "Ki, S653T mutant, ± standard error of the mean"}, "[16]": {"conditions": "Ki (Supplementary Figure 6), P197L, fit of % activity remaining vs [I], two independent replicates"}, "[17]": {"conditions": "Ki, P197L mutant, ± standard error of the mean"}, "[18]": {"conditions": "Ki, W574L mutant, ± standard error of the mean"}, "[19]": {"conditions": "S653T, 160 mM pyruvate, 30 °C, ± SEM"}, "[20]": {"conditions": "S653T, individual replicate of triplicate"}, "[21]": {"conditions": "individual replicate of triplicate"}, "[22]": {"conditions": "Ki (Supplementary Figure 6), W574L, fit of % activity remaining vs [I], two independent replicates"}}, "note": "Values joined by “and” are separate entries in the source; they are usually repeats but may differ in a detail not shown here. Equal entries are not always repeated. Where two headings read alike, the source gives them in different places."}
{"smiles": "COc1cc(OC)n2nc(S(=O)(=O)Nc3c(Cl)ccc(C)c3Cl)nc2n1", "note": "[MT, metosulam]", "values": [{"measurement": "Ki", "setting": "[1]; Ki (Supplementary Figure 6), Wild type AtAHAS, fit of % activity remaining vs [I], two independent replicates", "result": "28.7 ± 11.2", "unit": "nM"}, {"measurement": "Ki", "setting": "[1]; Ki, WT AtAHAS, ± standard error of the mean", "result": "29 ± 11.2", "unit": "nM"}, {"measurement": "Ki", "setting": "[2]; [12]", "result": "1130 ± 130", "unit": "nM"}, {"measurement": "Ki", "setting": "[2]; [13]", "result": "1130 ± 130", "unit": "nM"}, {"measurement": "Ki", "setting": "[3]; [14]", "result": "66 ± 5.64", "unit": "nM"}, {"measurement": "Ki", "setting": "[3]; [15]", "result": "66 ± 5.6", "unit": "nM"}, {"measurement": "Ki", "setting": "[4]; [16]", "result": "1320 ± 131", "unit": "nM"}, {"measurement": "Ki", "setting": "[4]; [17]", "result": "1320 ± 130", "unit": "nM"}, {"measurement": "Ki", "setting": "[5]; [18]", "result": "39300 ± 3900", "unit": "nM"}]}
{"smiles": "COc1cnc(OC)n2nc(NS(=O)(=O)c3c(OCC(F)F)cccc3C(F)(F)F)nc12", "note": "[PS, penoxsulam]", "values": [{"measurement": "k3 (rate of recovery)", "setting": "[6]; 160 mM pyruvate, 30 °C", "result": "NAI"}, {"measurement": "kiapp (apparent rate of enzyme inactivation)", "setting": "[6]; 160 mM pyruvate, 30 °C", "result": "NAI"}, {"measurement": "kiapp/k3 (efficiency of accumulative inhibition)", "setting": "[6]", "result": "NAI"}, {"measurement": "kiapp/k3 (efficiency of accumulative inhibition)", "setting": "[7]; S653T", "result": 126}, {"measurement": "efficiency of accumulative inhibition (kiapp/k3) compared to WT (in words)", "setting": "[7]; S653T vs WT", "result": "increased"}, {"measurement": "k3 (rate of recovery)", "setting": "[7]; [19]", "result": "0.015 ± 0.001", "unit": "min⁻¹"}, {"measurement": "kiapp (apparent rate of enzyme inactivation)", "setting": "[7]; [19]", "result": "1.89 ± 0.12", "unit": "min⁻¹"}, {"measurement": "k3, single progress curve (Supplementary Figure 8)", "setting": "[7]; [20]", "result": "0.013 min⁻¹ and 0.016 min⁻¹ and 0.015 min⁻¹"}, {"measurement": "kiapp, single progress curve (Supplementary Figure 8)", "setting": "[7]; [20]", "result": "1.78 min⁻¹ and 2.1 min⁻¹ and 1.71 min⁻¹"}, {"measurement": "k3 (rate of recovery)", "setting": "[8]; 160 mM pyruvate, 30 °C", "result": "NAI"}, {"measurement": "kiapp (apparent rate of enzyme inactivation)", "setting": "[8]; 160 mM pyruvate, 30 °C", "result": "NAI"}, {"measurement": "kiapp/k3 (efficiency of accumulative inhibition)", "setting": "[8]", "result": "NAI"}, {"measurement": "k3 (rate of recovery)", "setting": "[9]; 160 mM pyruvate, 30 °C", "result": "NAI"}, {"measurement": "kiapp (apparent rate of enzyme inactivation)", "setting": "[9]; 160 mM pyruvate, 30 °C", "result": "NAI"}, {"measurement": "kiapp/k3 (efficiency of accumulative inhibition)", "setting": "[9]", "result": "NAI"}, {"measurement": "Ki", "setting": "[10]; ref Lonhienne et al.[11]", "result": "1.9 ± 0.9", "unit": "nM"}, {"measurement": "kiapp/k3 (efficiency of accumulative inhibition)", "setting": "[11]", "result": 87}, {"measurement": "k3 (rate of recovery)", "setting": "[11]; 160 mM pyruvate, 30 °C, ± SEM", "result": "0.014 ± 0.002", "unit": "min⁻¹"}, {"measurement": "kiapp (apparent rate of enzyme inactivation)", "setting": "[11]; 160 mM pyruvate, 30 °C, ± SEM", "result": "1.22 ± 0.09", "unit": "min⁻¹"}, {"measurement": "k3, single progress curve (Supplementary Figure 8)", "setting": "[11]; [21]", "result": "0.017 min⁻¹ and 0.011 min⁻¹ and 0.013 min⁻¹"}, {"measurement": "kiapp, single progress curve (Supplementary Figure 8)", "setting": "[11]; [21]", "result": "1.4 min⁻¹ and 1.11 min⁻¹ and 1.17 min⁻¹"}, {"measurement": "Ki", "setting": "[2]; [13]", "result": "85 ± 6.3", "unit": "nM"}, {"measurement": "Ki", "setting": "[3]; [14]", "result": "5.04 ± 2.24", "unit": "nM"}, {"measurement": "Ki", "setting": "[3]; [15]", "result": "5 ± 2.2", "unit": "nM"}, {"measurement": "Ki", "setting": "[4]; [16]", "result": "81.9 ± 7.26", "unit": "nM"}, {"measurement": "Ki", "setting": "[4]; [17]", "result": "82 ± 7", "unit": "nM"}, {"measurement": "Ki", "setting": "[5]; [22]", "result": "67100 ± 2970", "unit": "nM"}, {"measurement": "Ki", "setting": "[5]; [18]", "result": "67100 ± 3000", "unit": "nM"}, {"measurement": "increase in Ki / loss of affinity compared to WT", "setting": "[5]; W574L vs WT", "result": "35,000 fold"}]}
{"smiles": "COc1cc(OC)nc(Sc2cccc(Cl)c2C(=O)O)n1", "note": "[PTB, pyrithiobac]", "values": [{"measurement": "Ki", "setting": "[10]; ref Garcia et al.[13]", "result": "179 ± 12", "unit": "nM"}, {"measurement": "Ki", "setting": "[2]; [12]", "result": "1460 ± 282", "unit": "nM"}, {"measurement": "Ki", "setting": "[2]; [13]", "result": "1500 ± 300", "unit": "nM"}, {"measurement": "Ki", "setting": "[3]; [14]", "result": "218 ± 15.8", "unit": "nM"}, {"measurement": "Ki", "setting": "[3]; [15]", "result": "218 ± 15.8", "unit": "nM"}, {"measurement": "Ki", "setting": "[4]; [16]", "result": "1950 ± 194", "unit": "nM"}, {"measurement": "Ki", "setting": "[4]; [17]", "result": "2000 ± 200", "unit": "nM"}, {"measurement": "Ki", "setting": "[5]; [22]", "result": "91200 ± 8190", "unit": "nM"}, {"measurement": "Ki", "setting": "[5]; [18]", "result": "91200 ± 8200", "unit": "nM"}]}
